Broadly, the inhibition is the drop in the measured response relative to a control, in per cent. Usually IC50 stands for the concentration at which inhibition is half-maximal. A high value points to weaker potency.

Consider 1 compound from patent US11572590B2, “Methods for evaluating tumor cell spheroids using 3D microfluidic cell culture device” (Dana-Farber Cancer Institute, Inc., priority 2017, dated 2023).

In assay [1] the test system is human CD4+ and CD8+ T cells. In words: IL-2 secretion by anti-CD3/anti-CD28 stimulated T cells. In kind it is cell-based. As to conditions: dose-titration, 24 hours. The protocol:
Freshly isolated human CD4+ and CD8+ T cells were obtained from AllCells (Alameda, Calif., USA). Cells were spun down and resuspended in serum free Xvivo15 media (Lonza Walkersville, Inc., Chicago, Ill., USA) supplemented with 5 ng/mL […] and incubated overnight at 37° C. Cells were plated on anti-CD3 coated plates (5 μg/mL OKT3, eBioscience, Dallas, Tex., USA, overnight) with 2 μg/mL anti-CD28 (eBioscience, Dallas, Tex., USA). Cells are treated in replicate plates with a dose-titration of Compound 1 for 24 hours for IL-2 and 96 hours for IFNγ. IL-2 and IFNγ in the supernatant were measured using single- or multi-plex immunoassay (Mesoscale Discovery, Rockville, Md., USA). Jurkat T cell leukemia cells (clone E61 obtained from ATCC) plated on anti-CD3 coated plates were treated with a dose titration of Compound 1 for 24 hours. IL-2 in the supernatant was measured as described above.

Assay [2] concerns the target T1, TBK1 (Homo sapiens, UniProt Q9UHD2).
T1 sequence (Q9UHD2 1-729): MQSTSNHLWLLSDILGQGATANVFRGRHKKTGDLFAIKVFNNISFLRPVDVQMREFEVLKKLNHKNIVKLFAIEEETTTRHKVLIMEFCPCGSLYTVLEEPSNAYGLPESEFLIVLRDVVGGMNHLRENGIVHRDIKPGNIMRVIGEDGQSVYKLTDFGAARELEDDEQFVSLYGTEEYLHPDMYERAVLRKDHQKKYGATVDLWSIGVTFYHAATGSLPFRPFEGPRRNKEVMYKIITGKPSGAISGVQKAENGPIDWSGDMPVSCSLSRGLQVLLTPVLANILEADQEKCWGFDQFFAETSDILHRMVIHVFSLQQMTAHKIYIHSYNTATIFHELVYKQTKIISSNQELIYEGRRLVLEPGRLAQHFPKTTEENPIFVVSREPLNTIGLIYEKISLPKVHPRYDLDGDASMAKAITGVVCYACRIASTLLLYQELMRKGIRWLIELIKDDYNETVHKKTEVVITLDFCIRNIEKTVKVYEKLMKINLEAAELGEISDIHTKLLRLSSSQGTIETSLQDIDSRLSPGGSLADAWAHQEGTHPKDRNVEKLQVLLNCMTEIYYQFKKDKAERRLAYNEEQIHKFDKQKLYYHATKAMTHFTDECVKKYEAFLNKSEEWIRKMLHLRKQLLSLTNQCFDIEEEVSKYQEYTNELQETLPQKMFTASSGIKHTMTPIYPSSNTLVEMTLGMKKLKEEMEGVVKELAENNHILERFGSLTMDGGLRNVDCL
The assay is described as follows: SelectScreen Kinase Profiling, IC50 for TBK1. The assay is classed as biochemical. To be noted: ATP Km app, ZLYTE; for inhibition: TBK1. The protocol:
Biochemical single point inhibition and IC50 concentrations for TBK1, IKKε (IKBKE), and off-target kinases were determined at ThermoFisher Scientific using SelectScreen Kinase Profiling Services (Madison, Wis., USA) (Tables S4A and S4B-1-7). To determine cellular potency, the human colorectal cancer carcinoma cell line HCT116 (ATCC, Manassas, Va.) was maintained in T175 flasks in complete RPMI medium; RPMI 1640 supplemented with 10% FBS, 1× Penicillin-Streptomycin solution and 1×MEM (non-essential amino acids). HCT116 cells were grown to 90-95% confluency in T175 flasks containing complete RPMI medium and transfected in bulk using Lipofectamine 2000 (Invitrogen, Carlsbad, Calif.) with 70 μg of ISG54-luciferase reporter plasmid (Elim Biopharmaceuticals Inc., Hayward, Calif.). The reporter plasmid contains a luciferase gene expression cassette under the transcriptional regulation of the promoter of the human interferon stimulated gene 54 (ISG54). Transfection of the cells was allowed to take place for 6 hours, after which the cells were harvested by treatment with 0.25% trypsin EDTA (Corning Inc., Corning, N.Y.). Trypsinized cells were added to 384-well poly-d-lysine treated black clear bottom tissue culture assay plates (Greiner Bio-One GmbH, Kremsmünster, Austria) at a density of 20,000 cells/well in 80 μL of complete RPMI medium and incubated overnight. After 16-18 hours post-transfection, the assay plates were washed with PBS (Corning Inc., Corning, N.Y.), followed by addition of 80 μL/well of serum-free RPMI 1640 medium containing 1× Penicillin-Streptomycin solution, 1×MEM and 350 nL of DMSO or titrations of Compound 1. Compound 1 titrations were generated by 1.5-fold dilution steps in two overlapping serial dilution series to generate a 40-point compound dose range. After incubation at 37° C. for 1 hour, the cells were stimulated with Poly(I:C) (InvivoGen, San Diego, Calif.) at a final concentration of 15 μg/mL in Optimem media (Life Technologies, Rockville, Md.). The assay plates were incubated for 5 hours at 37° C., followed by addition of One-Glo luciferase firefly reagent (Promega, Madison, Wis.) at 1:1 volume/well and luminescence was measured in an EnVision Multilabel Plate Reader (PerkinElmer, Santa Clara, Calif.). The EC50 values were calculated from the fit of the dose-response curves to a four-parameter equation. All EC50 values represent geometric mean values of a minimum of four determinations.

Read-outs that look alike come from different tables or passages of the source.

On to `N#Cc1cc(-c2ncnc(Nc3ccc(N4CCN(C5COC5)CC4)cc3)n2)ccc1OC1CCOCC1` [Compound 1, 5-(4-((4-(4-(oxetan-3-yl)piperazin-1-yl)phenyl)amino)-1,3,5-triazin-2-yl)-2-((tetrahydro-2H-pyran-4-yl)oxy)benzonitrile], for which the “secretion of IL-2 from purified CD4+ and CD8+ T cells” value in assay [1] was “enhanced secretion”. Besides, the inhibition worked out at 91% in assay [2] (read-out: % Inhibition 1), 99% in assay [2] (read-out: % Inhibition 2) and 95% in assay [2] (read-out: % Inhibition Avg). Besides, in assay [2], the Hillslope came out at 1.12. Further, half-maximal inhibition in assay [2] (IC50) was put at 1.04 nM. In addition, in assay [2] (IC50 relative to IKBKE IC50), the “fold selectivity (IKBKE)” value came out at 0.2 fold. Also, the “fold selectivity (TBK1)” value in assay [2] (IC50 relative to TBK1 IC50) is 1.0 fold.
